Results on 13 molecules are retold here after PubChem BioAssay AID493101 (Broad Institute, 2011).

The nature of assay [1]: inhibitors of AI-2 quorum sensing in V. harveyi, dose response, LuxS, LuxPQ, dry powder, set 4 (AID 493101). The note with it: Vibrio harveyi JMH597 AI-2 quorum sensing luminescence, 9 h; at 16 µM (top of the series).
For assay [2], the system named is Vibrio harveyi JMH597 AI-2 quorum sensing luminescence, 9 h. Described as above.

Results filed as inconclusive are left out. The source made the active and inactive calls.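 How the source made its calls: active means luminescence falls with dose and the fitted half-maximal concentration is within ten times the top dose in every run; inconclusive means runs disagree, or a flat moderate drop, or a poor fit; inactive means every run inactive, including rises or flat response.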

In the case of `CN(C)C(=O)c1ccccc1NS(=O)(=O)c1cn(C)cn1`, the activity change, negative = inhibition in assay [1] is 0.404% (inactive).

For the molecule `O=S(=O)(Nc1cccnc1)c1ccc(Oc2ccccc2)cc1`, the AC50 in assay [2] is 0.766 µM.

As to `CC(=O)Nc1ccccc1NS(=O)(=O)c1cn(C)cn1`, the activity change, negative = inhibition in assay [1] was 2.17% (inactive).

On to `C=Cn1c(C(=O)O)ccc1-c1ccc(CC)cc1`, for which the AC50 in assay [2] is 3.22 µM.

Regarding `CCc1ccc(-c2ccc(C(=O)O)n2C)cc1`, the AC50 in assay [2] is 5.52 µM.

For `O=S(=O)(Nc1ccccn1)c1ccc(Oc2ccccc2)cc1`, the AC50 in assay [2] is 7.34 µM.

With `COc1ccccc1NS(=O)(=O)c1cn(C)cn1`, in assay [1], the activity change, negative = inhibition was -5.36% (inactive).

On to `O=C1C=C/C(=C/Br)O1`, for which the AC50 in assay [2] is 4.64 µM.

Consider `Cc1ccccc1NS(=O)(=O)c1cn(C)cn1`, for which, in assay [1], the activity change, negative = inhibition was -1.44% (inactive).

Turning to `Cn1cnc(S(=O)(=O)Nc2ccccc2F)c1`, the activity change, negative = inhibition in assay [1] is 2.07% (inactive).

Turning to `Cn1cnc(S(=O)(=O)Nc2ccc(OC(F)(F)F)cc2)c1`, the AC50 in assay [2] was 8.62 µM.

As to `CCc1ccc(-c2ccc(C(=O)O)n2CC)cc1`, the activity change, negative = inhibition in assay [1] was 2.4% (inactive).

`Cn1cnc(S(=O)(=O)Nc2ccccc2Cl)c1`: the activity change, negative = inhibition in assay [1] is 3.87% (inactive).
